Experiments:
[1] = target: T1, Adrenergic receptor beta (Homo sapiens) (UniProt P08588+P07550+P13945)
[2] = target: T1, Adrenergic receptor beta (Homo sapiens); details: filed as antagonist
[3] = target: T1, Adrenergic receptor beta (Homo sapiens); remark: listed apart in the source
[4] = target: T1, Adrenergic receptor beta (Homo sapiens); details: filed as antagonist; remark: listed apart in the source
[5] = target: T1, Adrenergic receptor beta (Homo sapiens); details: filed as agonist
Description: Tested for intrinsic sympathomimetic activity (ISA); Agonist

`COc1ccc(CCNC[C@H](O)COc2ccc(-c3nc(C(C)=O)c[nH]3)cc2)cc1OC` was tested, and the ISA [1] was “Partial agonist”.

In the case of `Cc1cc2c(OCC(O)CNC(C)C)cccc2[nH]1` (centres undefined), the ISA [1] is reported as “Partial agonist”.

`CC(C)(C)NCC(O)COc1cccc2c1SCCC2` (centres undefined) was tested, and the ISA [2] was “Antagonist”.

`CC(C)NCC(O)COc1cccc2[nH]ccc12` (centres undefined) was tested, and the ISA [3] was “Partial agonist”.

`CCN(CC)C(=O)Nc1ccc(OCC(O)CNC(C)(C)C)c(C(C)=O)c1` (centres undefined) was tested, and the ISA [1] was “Partial agonist”.

For `CCc1cccc2cc(C(O)CNC(C)(C)C)oc12` (centres undefined), the ISA [3] was “Partial agonist”.

With `CC(C)(C)NCC(O)COc1cccc2c1CCCC2=O` (centres undefined) the ISA [4] was “Antagonist”.

In the case of `COc1ccc(CCNC[C@H](O)COc2ccc(Cc3nc(C(C)=O)c[nH]3)cc2)cc1OC`, the ISA [2] is reported as “Antagonist”.

For `NC[C@H](O)c1ccc(O)c(O)c1`, the ISA [5] was “Agonist”.

In the case of `CC(C)(C)NCC(O)COc1ccccc1C#N` (centres undefined), the ISA [1] is reported as “Partial agonist”.

With `COCCOc1ccc(OC[C@@H](O)CNC(C)C)cc1` the ISA [3] was “Partial agonist”.

For `CC(C)(C)NC[C@H](O)COc1cccc2c1CC1(CCCCC1)C2=O`, the ISA [2] was “Antagonist”.

With `CC(C)(C)NCC(O)COc1cccc2c1CC(O)C(O)C2` (centres undefined) the ISA [2] was “Antagonist”.

`CC(C)NCC(O)c1ccc(Cl)c(Cl)c1` (centres undefined) was tested, and the ISA [3] was “Partial agonist”.
